Test results published in PubChem BioAssay (NCI).
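Test compounds were applied to cells in 96-well plates for 48 hours at 5 doses. Definition used: TGI = concentration required for complete inhibition of growth.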

Tests used:
Assay in all cases: NCI anticancer screen, dose series, 48 h
[1] = test system: 786-0 renal
[2] = test system: A498 renal
[3] = test system: A549 NSCLC
[4] = test system: ACHN renal
[5] = test system: BT-549 breast
[6] = test system: CAKI-1 renal
[7] = test system: CCRF-CEM leukemia
[8] = test system: COLO 205 colon
[9] = test system: DU-145 prostate
[10] = test system: EKVX NSCLC
[11] = test system: HCC-2998 colon
[12] = test system: HCT-116 colon
[13] = test system: HCT-15 colon
[14] = test system: HL-60(TB) leukemia
[15] = test system: HOP-62 NSCLC
[16] = test system: HS 578T breast
[17] = test system: HT29 colon
[18] = test system: IGROV1 ovarian
[19] = test system: K-562 leukemia
[20] = test system: KM12 colon
[21] = test system: LOX IMVI melanoma
[22] = test system: M14 melanoma
[23] = test system: MALME-3M melanoma
[24] = test system: MCF7 breast
[25] = test system: MDA-MB-231 breast
[26] = test system: MDA-MB-435
[27] = test system: MDA-N
[28] = test system: MOLT-4 leukemia
[29] = test system: NCI-H226 lung
[30] = test system: NCI-H23 lung
[31] = test system: NCI-H460 lung
[32] = test system: NCI-H522 lung
[33] = test system: NCI/ADR-RES ovarian
[34] = test system: OVCAR-3 ovarian
[35] = test system: OVCAR-4 ovarian
[36] = test system: OVCAR-5 ovarian
[37] = test system: OVCAR-8 ovarian
[38] = test system: PC-3 prostate
[39] = test system: RPMI-8226 leukemia
[40] = test system: SF-268 CNS
[41] = test system: SF-295 CNS
[42] = test system: SF-539 CNS
[43] = test system: SK-MEL-2 melanoma
[44] = test system: SK-MEL-28 melanoma
[45] = test system: SK-MEL-5 melanoma
[46] = test system: SK-OV-3 ovarian
[47] = test system: SN12C renal
[48] = test system: SNB-19 CNS
[49] = test system: SW-620 colon
[50] = test system: T-47D breast
[51] = test system: TK-10 renal
[52] = test system: U251 CNS
[53] = test system: UACC-257 melanoma
[54] = test system: UACC-62 melanoma
[55] = test system: UO-31 renal
[56] = test system: HOP-92 NSCLC
[57] = test system: SNB-75 CNS
[58] = test system: SR leukemia

Measured: TGI

NN(CC(=O)O)CC(=O)O
not listed: [56] | [57] | [58]
> 100 µM: all other assays above

CC(=O)OCC1OC(n2cnc(C(N)=S)c2N)C(OC(C)=O)C1OC(C)=O (stereo not given)
not listed: [2] | [10] | [19]
> 100 µM: all other assays above
